# Values joined by “and” are separate entries in the source; they are usually repeats but may differ in a detail not shown here. Equal entries are not always repeated. Where two headings read alike, the source gives them in different places.
# Tests used:
# In vivo PK study in mice = settings: male, BALB/c, mouse, plasma, 5 mg/kg
# Experimental: The mice were separately administered to a group of three mice per time point for intravenous (5 mg/kg) or oral administration (5 mg/kg). […] Then the samples were separated by centrifugation and analyzed by LC-MS/MS (XEVO TQ-S) to determine the plasma drug concentrations. The PK parameters were calculated using the noncompartment model with Phoenix WinNonLin v8.0. The animal experimental procedures were approved by the Medicine Research Ethics Committee of Hangzhou Leading Pharmatech Co., Ltd.
# SET-2 cells = assay: Cell proliferation assay (CCK-8), SET-2 cells; format: cell-based, human; settings: for Inhibition (%): single wells of replicate 1 and replicate 2
# Experimental: (§1) The human erythroid leukemia (HEL 92.1.7) cells were purchased from the American Type Culture Collection (ATCC, TIB-180), and the human megakaryoblastic (SET2) cells were obtained from German Collection of Microorganisms and Cell Cultures (DSMZ, ACC 608). The anti-proliferative activities of compounds were evaluated using WST-8 cell counting kit-8 (Elabscience). HEL and SET-2 cells were seeded at 5000 cells/well in 70 μL RPMI-1640 medium (Hyclon) with 10% FBS (Gibco) to the 96-well plate and incubated overnight at 37 °C with 5% CO2. The compounds were serially diluted in RPMI-1640 medium, and cells were treated separately with 30 μL various concentrations of compounds for 72 h. The final DMSO concentration in the culture wells was 0.1%, which had no effect on the cell viability. Finally, 10 μL of CCK-8 solution was added into the wells. 4 h later, the absorbance values at 450 nm were recorded. IC50 values were determined using GraphPad Prism v8.3.0, and three parallel experiments were performed.
# [1] = Chemical stability in DMSO stock solution (HPLC purity); format: physicochemical; settings: mean±SD
# Description: compounds were formulated in the solubilizing vehicle (5% DMSO/30% PEG400/65% […]
# safety to the mice in the test.
# 6. What was the sample dissolved in for the in vitro and in vivo experiments? Response: The solvent information for the in vitro and in vivo experiments has been added in the revised manuscript. […]
# 7. Was the stability of the different compounds assessed and compared to Fedratinib? This is generally a critical point in macrocyclic studies. […]
# in DMSO stock solution. Test compounds were incubated at room temperature and 60 ℃, respectively, for 72 h, and their purities (%) were determined using HPLC equipped with a CORTECS C18 column (4.6*50 mm, 2.7 μm particle size) and a UV/VIS detector setting of λ=210 nm. All co mpounds were eluted with the two solvent systems ([…] as organic phase in Method I and CH3OH as organic phase in Method II) at a flow rate of 0.3 ml/min. Each experiment repeated for three times and the results are represented as mean±SD.
# Ta b e l R 1 . Comparison of chemical stability of different compounds at room temperature and 60 ℃, respectively.
# DSS-induced colitis mice = assay: In vivo efficacy study, DSS-induced colitis model; design: species or system male BALB/c mice; settings: Fedratinib 10 mg/kg; for DAI score (Fig. 6b) / Body weight (Fig. 6a): individual mice
# Experimental: Model mice were divided into four groups and eight mice were included in each group on day 8. […] Meanwhile, solvent was given intragastrically to the control group and model group. On day 15, the mice were sacrificed, and the length and weight of each colon were measured.
# Body weight, the stool consistency, and the presence of blood in feces were recorded daily in the morning. […] The maximum score was 9, which was the sum of the scores. About 1-cm colon tissue, which is 0.5 cm away from the anal margin, was collected, and the ileocecal area was used for histopathological examination. After H&E staining, the tissues were scored under single-blind conditions to evaluate the levels of inflammation and tissue damage in the colons following the criteria proposed by ref. [62]. Statistical analyses were performed using SPSS v24.0.
# HEL cells = assay: Cell proliferation assay (CCK-8), HEL cells; format: cell-based, human
# Experimental: as §1
# 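Throughout, for Cmax: mice dosed intravenously or orally, three animals per time point, plasma drug levels quantified by LC-MS/MS, PK parameters derived by noncompartmental analysis in Phoenix WinNonLin.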
# 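Throughout, for Tmax: mice dosed intravenously or orally, three animals per time point, plasma drug levels quantified by LC-MS/MS, PK parameters derived by noncompartmental analysis in Phoenix WinNonLin.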
structure (smiles),measurement,setting,value
Cc1cnc(Nc2ccc(OCCN3CCCC3)cc2)nc1Nc1cccc(S(=O)(=O)NC(C)(C)C)c1 [Fedratinib],AUC(0-inf),In vivo PK study in mice; iv,227 ng·h/mL
same,Cmax,In vivo PK study in mice; iv,275 ng/mL
same,Tmax,In vivo PK study in mice; iv,4.98 min
same,half-life,In vivo PK study in mice; iv,18 min
same,bioavailability,In vivo PK study in mice; oral,11.7%
same,AUC(0-inf),In vivo PK study in mice; po,50.2 ng·h/mL
same,Cmax,In vivo PK study in mice; po,6.81 ng/mL
same,Tmax,In vivo PK study in mice; po,60 min
same,half-life,In vivo PK study in mice; po,282 min
same,IC50,"SET-2 cells; Homo sapiens, SET-2, 72 h, SET-2 cells, 72 h, mean ± SD, read-out: Cellular Antiproliferative Activity (IC50) SET-2",1.12 ± 0.08 µM
same,IC50,"SET-2 cells; Homo sapiens, SET-2, SET-2 cell lines, mean of two replicates, read-out: IC50/μM mean",1.12 µM
same,IC50,"SET-2 cells; Homo sapiens, SET-2, SET-2 cell lines, mean ± sd of two replicates, read-out: IC50/μM mean ± sd",1.12 ± 0.08 µM
same,IC50,"SET-2 cells; Homo sapiens, SET-2, SET-2 cell lines, value of each single replicate, read-out: IC50/μM",1.07 µM
same,Inhibition (%),"SET-2 cells; SET-2 cell lines, C 0.0977 μM",12.0389% and 5.1759% and -0.6577% and 17.763% and 22.009% and 18.591%
same,Inhibition (%),"SET-2 cells; SET-2 cell lines, C 0.1953 μM",22.4478% and 11.8101% and 6.6629% and 13.309% and 23.874% and 25.324%
same,Inhibition (%),"SET-2 cells; SET-2 cell lines, C 0.3906 μM",33.6574% and 13.6403% and 14.6697% and 30.399% and 33.402% and 33.506%
same,Inhibition (%),"SET-2 cells; SET-2 cell lines, C 0.7813 μM",33.8862% and 39.7198% and 32.9711% and 35.163% and 37.960% and 48.110%
same,Inhibition (%),"SET-2 cells; SET-2 cell lines, C 1.5625 μM",69.3452% and 65.5705% and 67.2862% and 30.399% and 43.553% and 55.671%
same,Inhibition (%),"SET-2 cells; SET-2 cell lines, C 3.1250 μM",88.2185% and 85.2445% and 86.3883% and 75.039% and 80.010% and 81.357%
same,Inhibition (%),"SET-2 cells; SET-2 cell lines, C 6.2500 μM",86.3883% and 85.8164% and 88.9048% and 71.725% and 72.139% and 76.385%
same,Inhibition (%),"SET-2 cells; SET-2 cell lines, C 12.5000 μM",97.7123% and 97.3692% (2×) and 89.643% (2×) and 91.093%
same,IC50,"SET-2 cells; SET-2 cell lines, value of each single replicate, read-out: IC50/μM",1.16 µM
same,purity after incubation in DMSO stock solution,"[1]; 60 ℃, 0 h",98.91±0.10%
same,purity after incubation in DMSO stock solution,"[1]; 60 ℃, 2 h",98.91±0.10%
same,purity after incubation in DMSO stock solution,"[1]; 60 ℃, 24 h",98.89±0.17%
same,purity after incubation in DMSO stock solution,"[1]; 60 ℃, 48 h",100.00±0.00%
same,purity after incubation in DMSO stock solution,"[1]; 60 ℃, 72 h",98.96±0.15%
same,purity after incubation in DMSO stock solution,"[1]; Room Temperature, 0 h",99.36±0.06%
same,purity after incubation in DMSO stock solution,"[1]; Room Temperature, 2 h",99.11±0.14%
same,purity after incubation in DMSO stock solution,"[1]; Room Temperature, 24 h",99.99±0.00%
same,purity after incubation in DMSO stock solution,"[1]; Room Temperature, 48 h",99.08±0.02%
same,purity after incubation in DMSO stock solution,"[1]; Room Temperature, 72 h",99.57±0.06%
same,"histological scores (H&E, Ameho criteria)","DSS-induced colitis mice; 3.5% DSS colitis mice, compound 3 5 mg/kg",lower
same,body weight change,"DSS-induced colitis mice; 3.5% DSS colitis mice, compound 3 5 mg/kg, intragastric, day 8 to day 14",alleviate the decrease of body weight
same,DAI score (Fig. 6b),DSS-induced colitis mice; day 0,0
same,Body weight (Fig. 6a),"DSS-induced colitis mice; day 0, in g (unit assumed)",22.2 and 22.7 and 23.9 and 22.6 and 19.9 and 23.6 and 20.6 and 23.1
same,DAI score (Fig. 6b),DSS-induced colitis mice; day 1,1 (4×) and 0 (4×)
same,Body weight (Fig. 6a),"DSS-induced colitis mice; day 1, in g (unit assumed)",21.3 and 24.2 and 23.6 and 23.8 and 21.7 and 23.2 and 20.9 and 22
same,DAI score (Fig. 6b),DSS-induced colitis mice; day 2,0 (3×) and 1 (5×)
same,Body weight (Fig. 6a),"DSS-induced colitis mice; day 2, in g (unit assumed)",22.6 and 23.8
same,DAI score (Fig. 6b),DSS-induced colitis mice; day 3,0 (5×) and 1 (3×)
same,Body weight (Fig. 6a),DSS-induced colitis mice; day 4,21.8 and 22.7 and 23.6 (2×) and 22.3 and 21.7 and 19.8 and 23.2
same,DAI score (Fig. 6b),DSS-induced colitis mice; day 4,1 (5×) and 3 (2×) and 0
same,DAI score (Fig. 6b),DSS-induced colitis mice; day 5,0 (3×) and 3 (2×) and 1 and 4 and 2
same,Body weight (Fig. 6a),"DSS-induced colitis mice; day 5, in g (unit assumed)",22 and 21.8 and 23.1 and 21 and 21.9 and 23.6 and 18.9 and 22.7
same,DAI score (Fig. 6b),DSS-induced colitis mice; day 6,1 (4×) and 6 and 7 and 2 and 5
same,Body weight (Fig. 6a),"DSS-induced colitis mice; day 6, in g (unit assumed)",22.1 and 20.1 and 22.6 and 19.3 and 21.5 and 23.6 and 17.1 and 20.5
same,Body weight (Fig. 6a),DSS-induced colitis mice; day 7,21.8 (2×) and 19 and 22.5 and 18.2 and 23.9 and 16 and 18.3
same,DAI score (Fig. 6b),DSS-induced colitis mice; day 7,2 (2×) and 7 (3×) and 0 and 3 and 6
same,DAI score (Fig. 6b),DSS-induced colitis mice; day 8,0 (5×) and 3 (2×) and 6
same,Body weight (Fig. 6a),"DSS-induced colitis mice; day 8, in g (unit assumed)",22.3 and 18.8 and 23.8 and 18.6 and 21.7 and 24 and 15.6 and 17.2
same,DAI score (Fig. 6b),DSS-induced colitis mice; day 9,0 (5×) and 3 (2×) and 1
same,Body weight (Fig. 6a),"DSS-induced colitis mice; day 9, in g (unit assumed)",22.3 and 19.4 and 23.7 and 19.1 and 19.3 and 24.2 and 15.3
same,DAI score (Fig. 6b),DSS-induced colitis mice; day 10,2 (2×) and 1 (3×) and 0 (2×)
same,Body weight (Fig. 6a),"DSS-induced colitis mice; day 10, in g (unit assumed)",21.6 and 18.4 and 23.8 and 19.7 and 19 and 23.6 and 15.4
same,DAI score (Fig. 6b),DSS-induced colitis mice; day 11,0 (5×) and 1 and 2
same,Body weight (Fig. 6a),"DSS-induced colitis mice; day 11, in g (unit assumed)",21.9 and 18.6 and 23.5 and 20.2 and 18.7 and 23.6 and 16
same,DAI score (Fig. 6b),DSS-induced colitis mice; day 12,0 (5×) and 1
same,Body weight (Fig. 6a),"DSS-induced colitis mice; day 12, in g (unit assumed)",22.2 and 19.1 and 24.1 and 19.9 and 19.4 and 23.8 and 16
same,Body weight (Fig. 6a),"DSS-induced colitis mice; day 13, in g (unit assumed)",21.9 and 19.8 and 24.2 and 20.4 and 20.1 and 24 and 16.1
same,Body weight (Fig. 6a),"DSS-induced colitis mice; day 14, in g (unit assumed)",22.6 and 20.3 and 24.5 and 20.4 and 20.8 and 24.1 and 16.5
same,HE staining score (Fig. 6d),DSS-induced colitis mice; individual colon tissues (n = 5),1 and 3 and 0
same,symptoms in DSS-induced murine colitis,DSS-induced colitis mice; compound 3 5 mg/kg,ameliorate the symptoms
same,Inhibition (%),"HEL cells; HEL cell lines, 0.0977 μM, single wells, replicates 1 and 2",3.834% and 2.092% and -5.316% and -2.068% and -2.146% and 0.251%
same,Inhibition (%),"HEL cells; HEL cell lines, 0.1953 μM, single wells, replicates 1 and 2",5.577% and 4.096% and -7.320% and -6.244% and 7.056% and 1.643%
same,Inhibition (%),"HEL cells; HEL cell lines, 0.3906 μM, single wells, replicates 1 and 2",16.296% and 7.233% and 2.004% and -5.316% and 4.195% and -1.991%
same,Inhibition (%),"HEL cells; HEL cell lines, 0.7813 μM, single wells, replicates 1 and 2",26.492% and 16.296% and 14.205% and 10.690% and 13.319% and 1.875%
same,Inhibition (%),"HEL cells; HEL cell lines, 1.5625 μM, single wells, replicates 1 and 2",66.754% and 58.911% and 59.608% and 37.908% and 40.692% and 44.790%
same,Inhibition (%),"HEL cells; HEL cell lines, 3.1250 μM, single wells, replicates 1 and 2, 3.125 µM",88.628% and 87.669% and 91.881% and 90.412% and 89.871%
same,Inhibition (%),"HEL cells; HEL cell lines, 6.2500 μM, single wells, replicates 1 and 2, 6.25 µM",90.893% and 89.499% and 94.355% and 93.737% and 94.510%
same,Inhibition (%),"HEL cells; HEL cell lines, 12.5000 μM, single wells, replicates 1 and 2, 12.5 µM",91.590% and 91.503% and 95.902% (2×) and 96.056%
same,IC50,"HEL cells; HEL cell lines, single-replicate fits, read-out: IC50/μM (individual replicates), cellular antiproliferative activity",1.38 µM
same,IC50,"HEL cells; Homo sapiens, HEL, 72 h, HEL cells, 72 h, mean ± SD, read-out: Cellular Antiproliferative Activity (IC50) HEL",1.34 ± 0.06 µM
same,inhibition at 3.125 µM,"HEL cells; Homo sapiens, HEL, HEL cell lines, 3.1250 μM, single wells, replicates 1 and 2",90.5%
same,inhibition at 6.25 µM,"HEL cells; Homo sapiens, HEL, HEL cell lines, 6.2500 μM, single wells, replicates 1 and 2",92.1%
same,inhibition at 12.5 µM,"HEL cells; Homo sapiens, HEL, HEL cell lines, 12.5000 μM, single wells, replicates 1 and 2",93.2%
same,inhibition at 25 µM,"HEL cells; Homo sapiens, HEL, HEL cell lines, […], single wells, replicates 1 and 2",94.5%
same,IC50,"HEL cells; Homo sapiens, HEL, HEL cell lines, mean of 2 replicates, read-out: IC50/μM mean, cellular antiproliferative activity",1.34 µM
same,IC50,"HEL cells; Homo sapiens, HEL, HEL cell lines, mean ± sd of 2 replicates, read-out: IC50/μM mean ± sd, cellular antiproliferative activity",1.34 ± 0.06 µM
same,IC50,"HEL cells; Homo sapiens, HEL, HEL cell lines, single-replicate fits, read-out: IC50/μM (individual replicates), cellular antiproliferative activity",1.29 µM

# Reference: article PMC10382584, “Macrocyclization of linear molecules by deep learning to facilitate macrocyclic drug candidates discovery” (Nature Communications, 2023)
